pEC50: −log10 of the molar value. Read-outs that look alike come from different tables or passages of the source.
Tests used:
[1] = molecular target: GLP-1R (Homo sapiens (Human), UniProt P43220); assay: GLP-1R activation: cAMP increase in CHO cells stably expressing GLP-1R; assay type: cell-based; details: 10 point dose response, 30 minutes incubation at 37° C.
Protocol: GLP-1R activation by a compound of the present disclosure was quantified by measuring cAMP increase in CHO cells stably expressing GLP-1R (MultiSpan product #C1267-1a). […] The cells were then incubated overnight at 37° C., 5% CO2. […] 1% BSA (Rockland Immunochemicals product #BSA-1000)). Following the medium change, the cells were incubated for 1 hour at 37° C., 5% CO2. The tested GLP-1 compound was added to the cells in a 10 point dose response followed by a 30 minutes incubation at 37° C., 5% CO2. cAMP concentration increase was then detected using Cisbio's cAMP Gs Dynamic Kit (product #62AM4PEC) according to the manufacturer's protocol. The response was plotted against the log of the agonist concentration and fitted to a sigmoidal equation to determine the EC50.

[2] = Microsomal stability (liver microsomal assay, mixed cofactors); predicted hepatic clearance; assay type: in vitro ADME; details: liver microsomes 1.0 mg protein/mL (+UDPGA +NADPH), 1 μM analyte, 37° C.; scaled with human liver weight and hepatic blood flow 1.3 L/hr/kg
Protocol: Metabolic stability of compounds was assessed using human or rat liver microsomal assays (Corning). In these assays, 10 nL of each analyte at a concentration of 1 mM in 100% DMSO was dispensed into a well of a polypropylene plates using the Echo 550 acoustic liquid dispenser (Labcyte®). Each plate contained 384 wells with a single analyte in each well.
A solution of human (Corning® Gentest™ Human Mixed Pooled Microsomes or rat (Corning® Gentest™ Rat [Sprague-Dawley] Pooled Liver Microsomes) liver microsomes at 2 mg/ml in 100 mM K2HPO4/KH2PO4 at pH 7. 4 was combined with alamethicin from Trichoderma viride (Sigma-Aldrich) 0.0225 mg/ml. The mixture was incubated on ice for 15 minutes. 5 μL of this mixture was added to individual wells following a 15 minute incubation at room temperature and supplemented with 5 μL NADPH Regenerating Solution of cofactors (Corning® Gentest™ UGT Reaction Mix) containing 100 mM K2HPO4/KH2PO4 at pH 7.4, 2.6 mM NADP+, 6.6 mM glucose-6-phosphate, 6.6 mM MgCl2, 0.8 U/mL glucose-6-phosphate dehydrogenase, 0.1 mM sodium citrate, and 6.8 mM uridine diphosphate-glucuronic acid. The final concentration of each analyte compound at the beginning of the reaction was 1 μM. The reactions were incubated at 37° C. and samples were collected at time points of 0, 5, 15, 30, 40, 50, 60, and 70 minutes for further analysis. Background data were collected using reactions without analyte compounds.
Upon collection of the sample time points, samples were quenched with 30 μL of a solution of 72% acetonitrile, 8% methanol, 0.1% formic acid, 19.9% water, and internal standard (IS). Reaction plates were spun in a centrifuge at speed of 4,000 rcf for 30 minutes at 4° C., following a dilution of the 10 μL quenched reaction into 40 μL de-ionized water, yielding assay plates.
Assay plates were analyzed using solid-state extraction coupled with quadrupole time-of-flight mass spectrometer, using Agilent QToF 6530 RapidFire 360 system, with C4 type A solid state cartridges. Analysis was performed in either positive or negative ionization modes. Mobile phases contained 0.1% formic acid in water for loading analytes onto solid state extraction cartridges and 0.1% formic acid in acetonitrile for elution into a mass spectrometer in positive ionization mode, or 0.1% acetic acid in water for loading and 0.1% acetic acid in acetonitrile for extraction in negative ionization mode. Peak-area ratios of integrated counts for individual compounds to IS were plotted as semi-logarithmic chart of log vs time. The initial linear portion of decay was fitted to a linear regression equation to derive the half-time of analyte decay.
Pharmacological parameters for an analyte compound metabolism were calculated using the following equations: […]
wherein concentration refers to the protein concentration (mg/ml) in the reaction.
This scales the in vitro intrinsic clearance up to the value that would be predicted for the entire mass of liver tissue (but with no restriction by blood flow). The value depends upon the size of the liver (species-dependent) and the yield of microsomal protein as appropriate (assumed to be species-independent).
Hepatic clearance will depend upon the inter-relationship of intrinsic clearance and hepatic blood flow and was predicted from in vitro data using a variety of approaches.
The hepatic extraction is reported as the predicted clearance expressed as a proportion of hepatic blood flow.

Chain of GLP-1R (P43220 24-463): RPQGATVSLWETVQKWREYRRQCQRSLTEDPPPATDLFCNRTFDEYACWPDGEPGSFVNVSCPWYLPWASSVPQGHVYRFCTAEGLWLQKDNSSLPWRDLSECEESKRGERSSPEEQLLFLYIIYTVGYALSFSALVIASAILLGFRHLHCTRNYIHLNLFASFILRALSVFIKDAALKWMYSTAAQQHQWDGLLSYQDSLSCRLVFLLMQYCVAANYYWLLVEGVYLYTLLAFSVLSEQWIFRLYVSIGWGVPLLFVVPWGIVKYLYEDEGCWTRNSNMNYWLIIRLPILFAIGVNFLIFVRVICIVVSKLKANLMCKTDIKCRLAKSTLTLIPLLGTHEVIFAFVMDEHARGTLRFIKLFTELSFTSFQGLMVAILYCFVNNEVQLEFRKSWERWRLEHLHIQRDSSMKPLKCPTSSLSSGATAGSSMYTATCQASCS

SMILES	Predicted Hepatic Clearance (Pred. Cl.) [2]	pEC50 ([1]; cAMP increase, read-out: EC50)	pEC50 ([1]; EC50, cAMP increase)
CC1(c2ccc(Cl)cc2F)Oc2cccc(-c3cc(F)c(Cc4nc5ccc(C(=O)O)cc5n4C[C@@H]4CCO4)c(F)c3)c2O1 (single isomer, unassigned) [Example 48]	2 mL/min/kg		8.92
CC1(c2ccc(Cl)cc2F)Oc2cccc(-c3ccc(Cc4nc5ccc(C(=O)O)cc5n4C[C@@H]4CCO4)cn3)c2O1 (stereo partly drawn) [Example 77, 2-((6-(2-(4-chloro-2-fluorophenyl)-2-methylbenzo[d][1, 3]dioxol-4-yl)pyridin-3-yl)methyl)-1-(((S)-oxetan-2-yl)methyl)-1H-benzo[d]imidazole-6-carboxylic acid]	4.33 mL/min/kg	7.14	
CC1(c2ccc(Cl)cc2F)Oc2cccc(-c3cc(F)c(Cc4nc5ccc(C(=O)O)cc5n4C[C@@H]4CCO4)c(F)c3)c2O1 (single isomer, unassigned) [Example 47]	3.17 mL/min/kg		10.15
CC1(c2ccc(Cl)cc2F)Oc2cccc(-c3cc(F)c(Cc4nc5ccc(C(=O)O)cc5n4CC4(CC#N)CC4)c(F)c3)c2O1 (stereo not shown) [Example 1, 2-(4-(2-(4-chloro-2-fluorophenyl)-2-methylbenzo[d][1, 3]dioxol-4-yl)-2,6-difluorobenzyl)-1-((1-(cyanomethyl)cyclo-propyl)methyl)-1H-benzo[d]imidazole-6-carboxylic acid]	<1.83 mL/min/kg	9.29	
COCCn1c(Cc2c(F)cc(-c3cccc4c3OC3(CCCCc5cc(Cl)ccc53)O4)cc2F)nc2ccc(C(=O)O)cc21 (stereo not shown) [Example 57, 2-(4-(2′-chloro-6′,7′,8′,9′-tetrahydrospiro[benzo [d][1,3]dioxole-2,5′-benzo[7]annulen]-4-yl)-2,6-difluorobenzyl)-1-(2-methoxyethyl)-1H-benzo[d]imidazole-6-carboxylic acid]	9.17 mL/min/kg	6.46	
COCCn1c(Cc2c(F)cc(-c3cccc4c3OC3c5ccc(Cl)cc5OC43)cc2F)nc2ccc(C(=O)O)cc21 (stereo not shown) [Example 54, 2-(4-(7-chloro-4b,9b-dihydrobenzofuro [3,2-b]benzofuran-1-yl)-2,6-difluorobenzyl)-1-(2-methoxyethyl)-1H-benzo[d]imidazole-6-carboxylic acid]	3 mL/min/kg	6.20	
COCCn1c(Cc2c(F)cc(-c3c(F)ccc4c3OC(C)(c3ccc(Cl)cn3)O4)cc2F)nc2ccc(C(=O)O)cc21 (stereo not shown) [Example 100, 2-(4-(2-(5-chloropyridin-2-yl)-5-fluoro-2-methylbenzo[d][1, 3]dioxol-4-yl)-2,6-difluorobenzyl)-1-(2-methoxyethyl)-1H-benzo[d]imidazole-6-carboxylic acid]	10.3 mL/min/kg	7.85	
COCCn1c(Cc2cc(F)c(-c3cccc4c3OC(C)(c3ccc(Cl)cc3F)O4)cc2F)nc2ccc(-c3nn[nH]n3)cc21 (stereo not shown) [Example 84, 2-(4-(2-(4-chloro-2-fluorophenyl)-2-methylbenzo[d][1, 3]dioxol-4-yl)-2,5-difluorobenzyl)-1-(2-methoxyethyl)-6-(2H-tetrazol-5-yl)-1H-benzo[d]imidazole]	2.83 mL/min/kg	7.31	
CC1(c2ccc(Cl)cc2F)Oc2cccc(-c3cc(F)c(Cc4nc5ccc(C(=O)O)cc5n4C[C@@H]4CCO4)cc3F)c2O1 (stereo partly drawn) [Example 28, 2-(4-(2-(4-chloro-2-fluorophenyl)-2-methylbenzo[d][1, 3]dioxol-4-yl)-2,5-difluorobenzyl)-1-(((S)-oxetan-2-yl)methyl)-1H-benzo[d]imidazole-6-carboxylic acid]	3.83 mL/min/kg	10.47	
CC1(c2ccc(Cl)cc2F)Oc2cccc(-c3cc(F)c(Cc4nc5ccc(C(=O)O)cc5n4C[C@@H]4CCO4)cc3F)c2O1 (single isomer, unassigned) [Example 43]	4.67 mL/min/kg	8.13	
CC1(c2ccc(C#N)cc2F)Oc2cccc(-c3cc(F)c(Cc4nc5ccc(C(=O)O)cc5n4C[C@@H]4CCO4)c(F)c3)c2O1 (stereo partly drawn) [Example 91, 2-(4-(2-(4-cyano-2-fluorophenyl)-2-methylbenzo[d][1, 3]dioxol-4-yl)-2,6-difluorobenzyl)-1-(((S)-oxetan-2-yl)methyl)-1H-benzo[d]imidazole-6-carboxylic acid]	3.83 mL/min/kg	9.16	

More lines, main results first:

Predicted Hepatic Clearance (Pred. Cl.) [2]	pEC50 ([1]; cAMP increase, read-out: EC50)	SMILES	pEC50 ([1]; EC50, cAMP increase)
6.17 mL/min/kg	7.82	COCCn1c(Cc2c(F)cc(-c3cccc4c3OC(C)(c3ccc(C#N)cc3F)O4)cc2F)nc2ccc(C(=O)O)cc21 (stereo not shown) [Example 89, 2-(4-(2-(4-cyano-2-fluorophenyl)-2-methylbenzo[d][1, 3]dioxol-4-yl)-2,6-difluorobenzyl)-1-(2-methoxyethyl)-1H-benzo[d]imidazole-6-carboxylic acid]	
3.5 mL/min/kg	8.72	N#Cc1ccc(C2Oc3cccc(-c4cc(F)c(Cc5nc6ccc(C(=O)O)cc6n5C[C@@H]5CCO5)c(F)c4)c3O2)c(F)c1 (stereo partly drawn) [Example 30, (S)-2-(4-(2-(4-cyano-2-fluorophenyl)benzo [d][1,3]dioxol-4-yl)-2,6-difluorobenzyl)-1-(oxetan-2-ylmethyl)-1H-benzo[d]imidazole-6-carboxylic acid]	
12.7 mL/min/kg	6.89	COCCn1c(Cc2c(F)cc(-c3cccc4c3OC(CCC(=O)O)(c3ccc(Cl)cc3)N4)cc2F)nc2ccc(C(=O)O)cc21 (stereo not shown) [Example 10, 2-(4-(2-(2-carboxyethyl)-2-(4-chlorophenyl)-2,3-dihydrobenzo[d]oxazol-7-yl)-2,6-difluorobenzyl)-1-(2-methoxyethyl)-1H-benzo[d]imidazole-6-carboxylic acid]	
13 mL/min/kg	6.19	COCCn1c(Cc2csc(-c3cccc4c3OC(C)(c3ccc(Cl)cc3F)O4)c2)nc2ccc(C(=O)O)cc21 (stereo not shown) [Example 61, 2-((5-(2-(4-chloro-2-fluorophenyl)-2-methylbenzo[d][1, 3]dioxol-4-yl)thiophen-3-yl)methyl)-1-(2-methoxyethyl)-1H-benzo[d]imidazole-6-carboxylic acid]	
1.83 mL/min/kg	8.59	CC1(c2ccc(Cl)cc2F)Oc2cccc(-c3cc(F)c(Cc4nc5c(F)cc(C(=O)O)cc5n4CC4(CC#N)CC4)c(F)c3)c2O1 (single isomer, unassigned) [Example 105, 2-(4-(2-(4-chloro-2-fluorophenyl)-2-methylbenzo[d][1, 3]dioxol-4-yl)-2,6-difluorobenzyl)-1-((1-(cyanomethyl)cyclopropyl)methyl)-4-fluoro-1H-benzo[d]imidazole-6-carboxylic acid]	
3.67 mL/min/kg	6.95	COCCn1c(Cc2c(F)cc(-c3cccc4c3OC(C)(c3ccc(Cl)cn3)O4)cc2F)nc2ccc(C(=O)O)cc21 (stereo not shown) [Example 64, 2-(4-(2-(5-chloropyridin-2-yl)-2-methylbenzo[d][1, 3]dioxol-4-yl)-2,6-difluorobenzyl)-1-(2-methoxyethyl)-1H-benzo[d]imidazole-6-carboxylic acid]	

Reference: patent US20250099431A1, “GLP-1R MODULATING COMPOUNDS” (priority 2020, published 2025)
